Measurements as given in BigSolDB 2.1.

CNC(=O)c1cc(Oc2ccc(NC(=O)Nc3ccc(Cl)c(C(F)(F)F)c3)c(F)c2)ccn1
solubility (mole fraction)
Conditions | 278.15 K | 283.15 K | 288.15 K | 293.15 K | 298.15 K | 303.15 K | 308.15 K | 313.15 K
in acetone | 0.0014 | 0.00173 | 0.00199 | 0.00247 | 0.00323 | 0.00375 | 0.00443 | 0.00526
in acetonitrile | 0.00014 | 0.000162 | 0.000168 | 0.000203 | 0.000248 | 0.000299 | 0.000381 | 0.000492
in ethanol | 0.000641 | 0.000677 | 0.000739 | 0.000865 | 0.000911 | 0.0011 | 0.00126 | 0.00145
in isopropanol | 0.000657 | 0.000679 | 0.000698 | 0.000769 | 0.000918 | 0.00109 | 0.00137 | 0.00161
in methanol | 0.000315 | 0.000351 | 0.00041 | 0.000422 | 0.000475 | 0.000581 | 0.000689 | 0.000797
in n-propanol | 0.000701 | 0.000769 | 0.000814 | 0.000908 | 0.00099 | 0.0012 | 0.00147 | 0.00172
